From patent US8883415B2, “Aza-benzazolium containing cyanine dyes” (Life Technologies Corporation, priority 1999, dated 2014)
“Also recorded” adds a separate entry of the source.

Tests used:
double-stranded DNA [1] = experiment: Detecting double-stranded DNA in solution (fluorescence microplate reader); type: binding
Procedure: Samples containing 0.1 ng/mL to 1 microgram/mL double-stranded DNA are prepared in 10 mM Tris-HCl, 1 mM EDTA, pH 7.5. The selected dye of the invention is dissolved in DMSO at a concentration of 1-10 mM and then diluted into the same buffer at a concentration sufficient to achieve final optical densities of 0.1 and 0.01 at 500 nm, 530 nm, 540 nm or 560 nm. Equal volumes (100 microliters each) of DNA sample solution and dye solution at each concentration are combined and mixed gently at room temperature in a microplate well.
Samples are allowed to equilibrate for 5-60 minutes, protected from light, and the fluorescence of the sample is measured using a fluorescence microplate reader. DNA concentration is determined by comparison of the sample fluorescence with a standard curve obtained with that dye for each dye concentration. The sensitivity limit of several dyes in this assay is shown (Table 5).

double-stranded DNA [2] = experiment: Detecting double-stranded DNA in the presence of single-stranded DNA; type: binding; conditions: nucleic acids 2 micrograms/mL; dye 1 micromolar; excitation 540 nm, emission 570 nm
Procedure: Samples containing nucleic acids at a concentration of 2 micrograms/mL are combined with Compound 16, Compound 22, or Compound 24 at a final dye concentration of 1 micromolar in 10 mM Tris-HCl, 1 mM EDTA, pH 7.5, and mixed gently. The resulting mixture is allowed to incubate for 5-60 minutes at room temperature, protected from light, and sample fluorescence is measured using a fluorescence microplate reader, with excitation at 540 nm and emission at 570 nm. […] If, however, the dye concentration is reduced relative to the concentration of single-stranded nucleic acids, the fluorescence upon binding those nucleic acids increases relative to that of the double-stranded DNA-dye complex. Thus the assay is always performed in sufficient dye excess.

[3] = system: double-stranded bacteriophage λ cl857 DNA that is digested with HindIII restriction endonuclease; experiment: Detecting nucleic acids in gels; type: binding; conditions: 1 micromolar dye
Procedure: DNA samples are loaded onto agarose or polyacrylamide gels and electrophoresed using standard conditions. Selected dyes of the invention are dissolved in DMSO at a concentration of 1-10 micromolar and diluted into 0.5×TBE buffer to a final concentration of 1 micromolar dye. Gels are incubated for 20-90 minutes in this staining solution, with gentle agitation, at room temperature, protected from light. Nucleic acids are visualized by transillumination at 300 nm, followed by direct visual detection or photography using Polaroid black-and-white print film. Nucleic acids are alternatively visualized by scanning using a FMBIO II laser scanner with a 532 nm frequency-doubled YAG laser source or a charge-coupled device camera system coupled with an ultraviolet (300 nm) light source, or a visible light transilluminator.

[4] = system: double-stranded bacteriophage λ cl857 DNA that is digested with HindIII restriction endonuclease; experiment: Detecting nucleic acids in gels; type: binding; conditions: POLAROID 667 B&W film; FOTODYNE 254 nm epi.; 1 micromolar dye
[5] = system: 18-base oligodeoxynucleotide sequencing primer; experiment: Detecting oligonucleotides in solution; type: binding; conditions: Excitation 540 nm/Emission 570 nm
Procedure: Selected dyes of the invention are dissolved in DMSO at 1-10 micromolar concentration, then diluted into 10 mM Tris-HCl, 1 mM EDTA, pH 7.5 to a final optical density of 0.1 or 0.01 at 530 nm or 540 nm. The resulting dye solutions are combined with an equal volume of an 18-base oligodeoxynucleotide sequencing primer solution at concentrations of 0.1 ng/mL to 1 microgram/mL in the same buffer. The resulting mixture is mixed gently and incubated for 5-60 minutes at room temperature, protected from light, and the sample fluorescence is measured in a fluorescence microplate reader.

[6] = system: Escherichia coli ribosomal RNA; experiment: Detecting RNA in solution; type: binding; conditions: Excitation 540 nm/Emission 570 nm
Procedure: Selected dyes of the invention are dissolved in DMSO at 1-10 micromolar concentration, then diluted into 10 mM Tris-HCl, 1 mM EDTA, pH 7.5 to a final optical density of 0.1 or 0.01 at 530 nm or 540 nm. These dye solutions are combined with an equal volume of Escherichia coli ribosomal RNA at concentrations ranging from 0.25 ng/mL to 1 microgram/mL in microplate wells. The resulting mixtures are mixed gently and incubated for 5-60 minutes at room temperature, protected from light, and the sample fluorescence is measured.

proteins = experiment: Detection of proteins in SDS-polyacrylamide gels; type: binding; conditions: 1-3 μM dye in 7.5% acetic acid
Procedure: The pure protein or mixture of proteins of interest is prepared in Loading Buffer (50 mM Tris-HCl, pH 6.8, 2% SDS, 10% glycerol, and 0.015% bromophenol blue). Dithiothreitol is added to each sample, to a final concentration of 0.1 M. The samples are heated for 4-5 minutes at 90-95 °C and loaded onto a 15% Tris-glycine polyacrylamide mini- or full-sized gel containing 0.05%-0.1% SDS, with a 4% stacking gel. The gel is electrophoresed under standard conditions, in a standard Tris-glycine buffer containing 0.05%-0.1% SDS. The resulting gel is transferred to a small staining dish containing a 1-3 μM solution of Compound 25 in 7.5% acetic acid (in water). The staining solution is then covered with foil to protect it from room light and gently agitated for 45 minutes-1 hour. […] The gel is then removed from the staining dish, rinsed briefly in 7.5% acetic acid and transferred directly to a UV-transilluminator. The gel, with the stained protein bands is photographed using 300 nm transillumination and black and white POLAROID 667 print film with a Wratten 9 gelatin filter. […] Proteins appear as white bands on a grey to black background in the POLAROID photograph.

[7] = system: Jurkat human T-cell leukemia cells; experiment: Detection of apoptosis by flow cytometry; type: cell-based; conditions: 30 minutes on ice, 488 nm excitation
Procedure: A 1 mM solution of Compound 27 in DMSO is prepared. Jurkat human T-cell leukemia cells are treated with 10 μM camptothecin to induce apoptosis. A sample of the cells (1×10^8 cells/mL) is incubated with enough of the Compound 27 stock solution to give a final dye concentration of 0.1 μM, and sufficient propidium iodide to give a final concentration of 1.5 μM. After incubating for 30 minutes on ice, the cell samples are analyzed on a FacsVantage flow cytometer using 488-argon laser excitation, with emission at 530/30 and 675/20. Apoptotic cells are compared to control cells that were incubated with the same final concentration of DMSO used in the staining solution.

bovine serum albumin = bovine serum albumin (Bos taurus, UniProt P02769); experiment: Detecting proteins in solution; type: binding; conditions: 2 micromolar dye, 0.05% SDS; either 10 minutes at 90° C. or 5-60 minutes at room temperature
Sequence of bovine serum albumin (P02769 25-607): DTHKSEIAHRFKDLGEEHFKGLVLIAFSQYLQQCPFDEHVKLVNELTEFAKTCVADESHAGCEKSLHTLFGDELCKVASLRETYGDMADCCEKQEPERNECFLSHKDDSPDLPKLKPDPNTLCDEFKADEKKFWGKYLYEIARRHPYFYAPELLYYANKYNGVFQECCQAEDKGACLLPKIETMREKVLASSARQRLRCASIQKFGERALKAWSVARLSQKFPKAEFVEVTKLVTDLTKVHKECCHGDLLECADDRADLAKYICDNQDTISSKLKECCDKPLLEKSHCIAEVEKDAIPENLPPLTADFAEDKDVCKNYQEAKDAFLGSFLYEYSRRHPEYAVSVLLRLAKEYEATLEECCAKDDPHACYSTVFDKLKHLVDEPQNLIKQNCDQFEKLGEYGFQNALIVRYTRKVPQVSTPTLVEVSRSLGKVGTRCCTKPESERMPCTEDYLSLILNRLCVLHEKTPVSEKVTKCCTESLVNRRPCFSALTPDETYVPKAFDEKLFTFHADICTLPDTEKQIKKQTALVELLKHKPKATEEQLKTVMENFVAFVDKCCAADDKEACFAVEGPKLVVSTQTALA
Procedure: Compound 51 and Compound 44 are dissolved in DMSO at 1-10 mM and then diluted into 10 mM Tris-HCl, 1 mM EDTA, pH 7.5, containing 0.05% sodium dodecyl sulfate, to a final concentration of 2 micromolar. This dye solution is combined with samples containing bovine serum albumin at 100 ng/mL to 10 micrograms/mL. Samples are optionally incubated for 10 minutes at 90° C. and then cooled to room temperature, or are incubated for 5-60 minutes at room temperature. Fluorescence is measured using a fluorescence microplate reader with excitation at 540 nm and emission at 590 nm for Compound 44 and with excitation at 600 nm and emission at 670 nm for Compound 51. The fluorescence signal obtained from Compound 44 or 51 in buffer alone (control) is subtracted from the fluorescence recorded for the protein-containing samples in order to determine the intensity of the signal that is due to the presence of protein. Protein concentrations are then determined by comparison of the signal intensity thus obtained with the signals obtained using a dilution series of known concentration prepared using either the same protein or a protein standard, such as bovine serum albumin. The sensitivity limit for either dye under either condition is about 100 ng/mL bovine serum albumin (FIGS. 3 and 4).

DNA = experiment: Excitation and emission wavelengths when associated with DNA; type: physicochemical
[8] = Excitation 540 nm/Emission 570 nm
[9] = BOEHRINGER MANNHEIM LUMIIMAGER CCD, 300 nm trans., 520 nm em.
[10] = BOEHRINGER MANNHEIM LUMIIMAGER CCD, 300 nm trans., 545 nm em
[11] = HITACHI FMBIO II laser scanner, 532 nm freq.-doubled YAG laser
[12] = POLAROID 667 B&W film, DARK READER visible light box
[13] = POLAROID 667 B&W film, FOTODYNE 300 nm trans.
[14] = Excitation 530 nm/Emission 560 nm

| SMILES | Sensitivity Limit, High dye concentration (0.1 OD) (double-stranded DNA [1]; [8]) [ng/mL] | Sensitivity Limit, Low dye concentration (0.01 OD) (double-stranded DNA [1]; [8]) [ng/mL] | Sensitivity for detecting double-stranded DNA in agarose gels [3, 9] [pg] | Sensitivity for detecting double-stranded DNA in agarose gels [3, 10] [pg] | Sensitivity for detecting double-stranded DNA in agarose gels [3, 11] [pg] | Sensitivity for detecting double-stranded DNA in agarose gels [3, 12] [pg] | Sensitivity for detecting double-stranded DNA in agarose gels [3, 13] [pg] | Sensitivity for detecting double-stranded DNA in agarose gels [4] [pg] | further results |
| --- | --- | --- | --- | --- | --- | --- | --- | --- | --- |
| CCN(CC)Cc1ccc(C2=C/C(=C\c3nc4c(ccc[n+]4C)o3)c3ccccc3N2C)cc1.[I-] [Compound 22] | 10 | 1.0 | 830 | 50 | 7 | 60 | 120 | 30 | Preferential fluorescent staining of double-stranded DNA in the presence of single-stranded DNA and RNA (double-stranded DNA [2]): preferential fluorescent staining of double-stranded DNA; also recorded: detected preferentially |
| CC[N+](C)(CC)Cc1ccc(C2=C/C(=C\c3nc4c(ccc[n+]4C)o3)c3ccccc3N2C)cc1 [Compound 24] | 10 | 5.0 | 420 | 50 | 5 | 120 | 60 | 30 | Preferential fluorescent staining of double-stranded DNA in the presence of single-stranded DNA and RNA (double-stranded DNA [2]): detected preferentially |
| CC[N+](C)(CC)Cc1ccc(C2=C/C(=C\c3nc4c(ccc[n+]4C)o3)c3cc(OC)ccc3N2C)cc1 [Compound 25] | <10 | 0.5 | 1700 | 100 | 25 | 240 | 120 | 120 | Sensitivity Limit, High dye concentration (0.1 OD) [5]: <10 ng/mL; Sensitivity Limit, Low dye concentration (0.01 OD) [5]: >10 ng/mL; Sensitivity Limit, High dye concentration (0.1 OD) [6]: 200 ng/mL; Sensitivity Limit, Low dye concentration (0.01 OD) [6]: 1.2 ng/mL; Visual appearance of stained protein bands (proteins; 300 nm transillumination): brightly fluorescent orange bands; Visibility of protein bands in stained gel (proteins; after 10 minutes): protein bands are readily apparent |
| C[n+]1cccc2oc(/C=C3\C=CN(CCC[N+](C)(C)C)c4ccccc43)nc21 [Compound 27] | – | – | – | – | – | – | – | – | Sensitivity Limit, High dye concentration (0.1 OD) (double-stranded DNA [1]; [14]): 20 ng/mL; Sensitivity Limit, Low dye concentration (0.01 OD) (double-stranded DNA [1]; [14]): 0.5 ng/mL; Differentiation of apoptotic and normal cells (plot of FL1 versus FL3) ([7]; 0.1 μM dye, 10 μM camptothecin-induced apoptosis): capable of differentiating between apoptotic and normal cells |
| CCCCC1=C/C(=C\c2nc3c(cc(Br)c[n+]3C)s2)c2ccccc2N1c1ccccc1.[I-] [Compound 44] | – | – | – | – | – | – | – | – | Sensitivity limit for bovine serum albumin (bovine serum albumin): about 100 ng/mL |
| CN1C(c2ccccc2)=C/C(=C\C=C\c2nc3c(ccc[n+]3C)o2)c2ccccc21.[I-] [Compound 51] | – | – | – | – | – | – | – | – | Sensitivity limit for bovine serum albumin (bovine serum albumin): about 100 ng/mL |
| CN1C=C/C(=C\C(=C\c2sc3ccccc3[n+]2C)c2ccccc2)c2ccccc21 [Compound 60] | – | – | – | – | – | – | – | – | Emission wavelength (DNA): 659 nm; Excitation wavelength (DNA): 642 nm |
| CC[N+](C)(CC)CCC[n+]1c(-c2ccccc2)c2cc(N)ccc2c2ccc(N)cc21.[I-].[I-] [propidium iodide, reference compound] | – | – | – | – | – | – | – | – | Cells stained ([7]; 1.5 μM): Late stage apoptotic and necrotic cells are stained |
